Laboratory results: patent publication US7381540B2, “Composition for measuring glucose having improved substrate specificity” (Toyo Boseki Kabushiki Kaisha, priority 2005, dated 2008)

Columns and labels:
[1] = test system: modified PQQGDH; experiment: Maltose activity of glucose electrode loaded with modified PQQGDH (oxidation current, potassium ferricyanide mediator); assay type: biochemical, Acinetobacter baumannii strain NCIMB11517; conditions: solute 50 mM, pH 5.5; glucose or maltose 4 mM; 0.1 M potassium ferricyanide; +0.35 V; 25° C.
Description: 0.5 g of carbon graphite were placed in a mortar followed by the addition of 0.3 ml of liquid paraffin and kneading with a pestle for 30 minutes to produce a carbon paste. The resulting carbon paste was spread onto a platinum electrode followed by the addition of 10 μl of the modified PQQGDH solution (2,000 U/ml) produced in Example 2 and air drying for 30 minutes at room temperature. A cut cellulose semi-permeable membrane (molecular weight: 8,000) was placed over the dried enzyme electrode and the semi-permeable membrane was immobilized with plastic O-rings. The glucose electrode produced in this manner was then used after preliminarily immersing in the cold reaction solvent for 30 minutes.
The substances listed in Table 1 were used as solutes, and buffers were respectively prepared having a final concentration of 50 mM (pH 5.5). Each of the solvents contained an activator/stabilizer in the form of calcium chloride at 1 mM and surfactant in the form of 0.1% Triton X-100 in addition to the solute listed in Table 1. Potassium ferricyanide was dissolved in each of the produced solvents to a concentration of 0.1 M to prepare reaction solutions.
50 mM phosphoric acid or pimeric acid solution containing 1 mM calcium chloride and 0.1% Triton X-100 (consisting of three types having pH values of 5.0, 6.0 and 7.0, respectively) were prepared. Maltose activity of the glucose electrode was investigated for each according to the method of Example 5.

[2] = test system: modified PQQGDH; experiment: Substrate specificity using glucose assay system (ferricyanide reduction, absorbance 420 nm); assay type: biochemical
Description: D-glucose+ferricyanide ion+PQQGDH D-glucono-1,5-lactone+ferrocyanide ion
Specificity to each substrate can be determined by changing D-glucose to other saccharides. The presence of the ferrocyanide ion produced by reduction of the ferricyanide ion was confirmed by measuring the decrease of absorbance at a wavelength of 420 nm by spectrophotometry.
A. […]
B. Potassium ferricyanide solution: 50 mM (0.165 g potassium ferricyanide (molecular weight: 329.25) dissolved in 10 ml of distilled water)
C. PQQGDH solution: 31000 U/ml (approx. 128 mg PQQGDH (Toyobo: GLD-331) dissolved in 5 ml of distilled water)
D. Substrate solution (D-glucose solution or maltose solution): 100 or 400 mM
• 1. The following reaction mixture was prepared in a light shielding bottle, and stored on ice (prepared at use). 48.2 mL of each buffer solution (pH6.5) (A) • 4.0 mL of potassium ferricyanide solution (B) • 0.19 mL of (C) • 2. 2.65 ml of the reaction mixture and 0.3 ml of additive were placed in a test tube (plastic) and pre-warmed for 5 minutes at 37° C. • 3. 0.15 ml of substrate solution (D) were added and mixed gently. • 4. The reduction in the absorbance relative to water at 420 nm was recorded for 1 to 3 minutes with a spectrophotometer while maintaining at a temperature of 37° C., and the ΔOD per minute was calculated from the initial linear portion of the curve (ΔOD test). At the same time, the same procedure was carried out with the exception of adding distilled water instead of glucose solution followed by measurement of the blank (ΔOD blank).
The above-mentioned procedure was carried out at each of the predetermined concentrations shown in Tables 1 to 3 using as additives succinic acid, adipic acid, suberic acid, pimeric acid, potassium chloride, ammonium chloride, diammonium hydrogen citrate, malonic acid, L-lysine, taurine, 3,3-dimethylglutaric acid, malic acid, glutaric acid, calcium glycerate, amino-n-butyric acid, sodium glycolate, sodium α-ketoglutarate, fumaric acid, glycerin, glutamic acid and serine. And the procedure was also carried out for those not containing additives to assess the effects of additives.
Variation in absorbance per unit time was determined by calculating ΔOD/min(ΔOD test−ΔOD blank)
To evaluate whether activity had declined with respect to sugars other than glucose, the ΔOD/min (a) with D-glucose as the substrate solution and the ΔOD/min (b) with the other sugar in place of D-glucose as the substrate solution were measured, and the relative value ((b)/(a)×100) was calculated given 100 as the measurement value with glucose as the substrate.
In each of Tables 3 to 5, in the case the value of the ratio of measured values of maltose and glucose (maltose/glucose) relative to the control (control: no addition) is small, activity with respect to maltose during glucose measurement decreases.

[3] = test system: modified PQQGDH; experiment: as above; assay type: biochemical; conditions: potassium phosphate buffer pH 7.0
[4] = glutaric acid buffer pH 7.0, reagent 0.1%, substrate 4.8 mM, control 0.86
[5] = glutaric acid buffer pH 7.0, reagent 0.1%, substrate 19.2 mM, control 0.94
[6] = glutaric acid buffer pH 7.0, reagent 1%, substrate 4.8 mM, control 0.86
[7] = glutaric acid buffer pH 7.0, reagent 1%, substrate 19.2 mM, control 0.94
[8] = phthalic acid buffer pH 7.0, reagent 0.5%, substrate 4.8 mM, control 0.72
[9] = phthalic acid buffer pH 7.0, reagent 0.5%, substrate 19.2 mM, control 0.75
[10] = phthalic acid buffer pH 7.0, reagent 1%, substrate 4.8 mM, control 0.72
[11] = phthalic acid buffer pH 7.0, reagent 1%, substrate 19.2 mM, control 0.75
[12] = phthalic acid buffer pH 7.0, reagent 2%, substrate 4.8 mM, control 0.72
[13] = phthalic acid buffer pH 7.0, reagent 2%, substrate 19.2 mM, control 0.75
[14] = potassium phosphate buffer pH 7.0, reagent 0.5%, substrate 19.2 mM, control 0.93
[15] = potassium phosphate buffer pH 7.0, reagent 1%, substrate 19.2 mM, control 0.93
[16] = reagent 0.5%, substrate 4.8 mM, control 0.85
[17] = reagent 1%, substrate 4.8 mM, control 0.85
[18] = reagent 2%, substrate 4.8 mM, control 0.85
[19] = reagent 2%, substrate 19.2 mM, control 0.93

O=S(=O)(O)CCN1CCOCC1 [MES, reference compound] was tested, and the “Maltose Activity (%)” value [1] was 29.6%.
Work on N.N.O=C(O)CC(O)(CC(=O)O)C(=O)O [Diammonium hydrogen citrate] yielded a Maltose/glucose ratio [2, 4] of 0.78, a Maltose/glucose ratio [2, 5] of 0.90 and a Maltose/glucose ratio [2, 6] of 0.59. The Maltose/glucose ratio [2, 7] was 0.82, the Maltose/glucose ratio [2, 8] was 0.79 and the Maltose/glucose ratio [2, 9] was 0.55. For the same compound, the Maltose/glucose ratio [2, 10] was 0.80, the Maltose/glucose ratio [2, 11] was 0.70 and the Maltose/glucose ratio [2, 12] was 0.89. For the same compound, the Maltose/glucose ratio [2, 13] was 0.63, the Maltose/glucose ratio [2, 14] was 0.88 and the Maltose/glucose ratio [2, 15] was 0.76. For the same compound, the “activity with respect to maltose compared with the control (in words)” value ([2]; substrate concentration of 4.8 mM, in some cases) was “did not decrease”, the Maltose/glucose ratio [3, 16] was 0.64 and the Maltose/glucose ratio [3, 17] was 0.52. The Maltose/glucose ratio [3, 18] was 0.36 and the Maltose/glucose ratio [3, 19] was 0.54.
Cl.NCCCC[C@H](N)C(=O)O [L-lysine hydrochloride] showed a Maltose/glucose ratio [2, 6] of 0.65, a Maltose/glucose ratio [2, 7] of 0.87 and a Maltose/glucose ratio [2, 8] of 0.62. For the same compound, the Maltose/glucose ratio [2, 9] was 0.64, the Maltose/glucose ratio [2, 10] was 0.61 and the Maltose/glucose ratio [2, 11] was 0.58. For the same compound, the Maltose/glucose ratio [2, 12] was 0.59, the Maltose/glucose ratio [2, 13] was 0.50 and the Maltose/glucose ratio [2, 14] was 0.91. The Maltose/glucose ratio [2, 15] was 0.93, the Maltose/glucose ratio [3, 16] was 0.78 and the Maltose/glucose ratio [3, 17] was 0.71. It also gave a Maltose/glucose ratio [3, 18] of 0.66 and a Maltose/glucose ratio [3, 19] of 0.85.
O=C([O-])CO.[Na+] [sodium glycolate] was tested, and the Maltose/glucose ratio [2, 6] was 0.77 and the Maltose/glucose ratio [2, 7] was 0.92.
For O=C(O)CC(O)(CC(=O)O)C(=O)O [Citric acid], the “Maltose Activity (%)” value [1] was 23.4%.
O=C(O)/C=C/C(=O)O [Fumaric acid] gave a Maltose/glucose ratio [2, 6] of 0.68 and a Maltose/glucose ratio [2, 7] of 0.88.
For CC(=O)O [Acetic acid, reference compound], the “Maltose Activity (%)” value [1] was 35.5%.
Compound NCCS(=O)(=O)O [Taurine] has a Maltose/glucose ratio [2, 6] of 0.75, a Maltose/glucose ratio [2, 7] of 0.81 and a Maltose/glucose ratio [2, 8] of 0.71. It also gave a Maltose/glucose ratio [2, 9] of 0.72, a Maltose/glucose ratio [2, 10] of 0.66 and a Maltose/glucose ratio [2, 11] of 0.68. For the same compound, the Maltose/glucose ratio [2, 12] was 0.62 and the Maltose/glucose ratio [2, 13] was 0.68.
N[C@H](CCC(=O)O)C(=O)O [D-glutamic acid] was tested, and the Maltose/glucose ratio [2, 4] was 0.73 and the Maltose/glucose ratio [2, 5] was 0.89.
Compound N[C@@H](CO)C(=O)O [L-serine] has a Maltose/glucose ratio [2, 6] of 0.73 and a Maltose/glucose ratio [2, 7] of 0.87.
With O=C([O-])C(O)CO.O=C([O-])C(O)CO.[Ca+2] (racemic) [Calcium DL-glycerate] the Maltose/glucose ratio ([2]; glutaric acid buffer pH 7.0, reagent 0.33%, substrate 4.8 mM, control 0.86) was 0.60 and the Maltose/glucose ratio ([2]; glutaric acid buffer pH 7.0, reagent 0.33%, substrate 19.2 mM, control 0.94) was 0.82.
